Patent US5985837A, “Dolastatin 15 derivatives” (BASF Aktiengesellschaft, priority 1998, dated 1999)

Key:
[1] = test system: tumor cells such as the HT-29 colon carcinoma or LX-1 lung tumor; assay: Cytotoxicity, microculture tetrazolium assay (MTT); format: cell-based; conditions: 48 hours incubation, concentration giving T/C of 50% growth inhibition, cell line not given
Procedure: Cytotoxicity was measured using a standard methodology for adherent cell lines, such as the microculture tetrazolium assay (MTT). Details of this assay have been published (Alley, M. C. et al., Cancer Research 48:589-601, 1988). Exponentially growing cultures of tumor cells such as the HT-29 colon carcinoma or LX-1 lung tumor were used to make microtiter plate cultures. Cells were seeded at 5000-20,000 cells per well in 96-well plates (in […] of media), and grown overnight at 37° C. Test compounds were added, in 10-fold dilutions varying from 10^-4 M to 10^-10 M. Cells were then incubated for 48 hours. To determine the number of viable cells in each well, the MTT dye was added ([…] of a 3 mg/mL solution of 3-(4,5-dimethylthiazol-2-yl)-2,5-diphenyltetrazolium bromide in saline). This mixture was incubated at 37° C. for 5 hours, and then […] of 25% SDS, pH 2, was added to each well. After an overnight incubation, the absorbance of each well at 550 nm was read using an ELISA reader. The values for the mean ±SD of data from replicated wells were calculated, using the formula % T/C (% viable cells treated/control). The concentration of test compound which gives a T/C of 50% growth inhibition was designated as the IC50.

[2] = test system: National Cancer Institute's P388 lymphocytic leukemia (PS system) cell line; conditions: background statement; cited from earlier work
[3] = background statement on Dolastatin 15; cited from earlier work

Row | Molecule | IC50 [1] [µM] | inhibition of cell growth [2] | solubility in aqueous systems [3]
1 | 2-(Me2 Val-Val-MeVal-Pro-NH)--C6 H4 --CO--CH3 [IV-1] | > 1 |  | 
2 | CNC(=O)c1ccccc1NC(=O)[C@@H]1CCCN1C(=O)[C@H](C(C)C)N(C)C(=O)[C@@H](NC(=O)[C@H](C(C)C)N(C)C)C(C)C [Compound I-1, 2-(Me2 Val-Val-MeVal-Pro-NH)--C6 H4 C(O)NHCH3] | 0.4 |  | 
3 | CC(C)[C@H](NC(=O)[C@H](C(C)C)N(C)C)C(=O)N(C)[C@H](C(=O)N1CCC[C@H]1C(=O)Nc1ccccc1C(=O)NCc1ccccc1)C(C)C [Compound I-2, 2-(Me2 Val-Val-MeVal-Pro-NH)--C6 H4 C(O)NHCH2 C6 H5] | > 1 |  | 
4 | CC(C)NC(=O)c1ccccc1NC(=O)[C@@H]1CCCN1C(=O)[C@H](C(C)C)N(C)C(=O)[C@@H](NC(=O)[C@H](C(C)C)N(C)C)C(C)C [Compound I-3, 2-(Me2 Val-Val-MeVal-Pro-NH)--C6 H4 C(O)NHCH(CH3)2] | 0.5 |  | 
5 | CC(C)[C@H](NC(=O)[C@H](C(C)C)N(C)C)C(=O)N(C)[C@H](C(=O)N1CCC[C@H]1C(=O)Nc1ccccc1C(=O)Nc1ccccc1)C(C)C [Compound I-4, 2-(Me2 Val-Val-MeVal-Pro-NH)--C6 H4 C(O)NHC6 H5] | 0.4 |  | 
6 | CC(C)[C@H](NC(=O)[C@H](C(C)C)N(C)C)C(=O)N(C)[C@H](C(=O)N1CCC[C@H]1C(=O)Nc1ccccc1C(=O)Nc1nccs1)C(C)C [Compound I-5, 2-(Me2 Val-Val-MeVal-Pro-NH)--C6 H4 C(O)NH(thiazol-2-yl)] | 0.15 |  | 
7 | CNC(=O)c1cc(OC)c(OC)cc1NC(=O)[C@@H]1CCCN1C(=O)[C@H](C(C)C)N(C)C(=O)[C@@H](NC(=O)[C@H](C(C)C)N(C)C)C(C)C [Compound I-6, 2-(Me2 Val-Val-MeVal-ProNH)-4,5-bis(methoxy)C6 H2 C(O)NHCH3] | 0.2 |  | 
8 | CON(C)C(=O)c1ccccc1NC(=O)[C@@H]1CCCN1C(=O)[C@H](C(C)C)N(C)C(=O)[C@@H](NC(=O)[C@H](C(C)C)N(C)C)C(C)C [Compound I-60, (2)-(Me2 Val-Val-MeVal-Pro-NH)-C6 H4 -CON(CH3) (OCH3)] | 0.4 |  | 
9 | CC(C)[C@H](NC(=O)[C@H](C(C)C)N(C)C)C(=O)N(C)[C@H](C(=O)N1CCC[C@H]1C(=O)Nc1ccccc1C(=O)N1CCC(c2ccccc2)O1)C(C)C (stereo partly drawn) [Compound I-64, 2-(Me2 Val-Val-MeVal-Pro-NH)--C6 H4 --CO--N(--(CH2)2 --CH(C6 H5)O--)] | 0.25 |  | 
10 | CC(C)[C@H](NC(=O)[C@H](C(C)C)N(C)C)C(=O)N(C)[C@H](C(=O)N1CCC[C@H]1C(=O)Nc1ccccc1C(=O)NCCCO)C(C)C [Compound I-86, 2-(Me2 Val-Val-MeVal-Pro-NH)--C6 H4 --CO--NH(--(CH2)3 --OH)] | 0.6 |  | 
11 | CC(C)[C@H](NC(=O)[C@H](C(C)C)N(C)C)C(=O)N(C)[C@H](C(=O)N1CCC[C@H]1C(=O)Nc1ccccc1C(=O)NCCC(O)c1ccccc1)C(C)C (stereo partly drawn) [Compound I-87, 2-(Me2 Val-Val-MeVal-Pro-NH)--C6 H4 C(O)NH((CH2)2 CH(C6 H5)OH)] | 0.2 |  | 
12 | CNC(=O)c1cccc(NC(=O)[C@@H]2CCCN2C(=O)[C@H](C(C)C)N(C)C(=O)[C@@H](NC(=O)[C@H](C(C)C)N(C)C)C(C)C)c1 [II-1, 3-(Me2 Val-Val-MeVal-Pro-NH)--C6 H4 --CO--NHCH3] | > 1 |  | 
13 | CC(C)[C@H](NC(=O)[C@H](C(C)C)N(C)C)C(=O)N(C)[C@H](C(=O)N1CCC[C@H]1C(=O)Nc1cccc(C(=O)NCc2ccccc2)c1)C(C)C [II-2, 3-(Me2 Val-Val-MeVal-Pro-NH)--C6 H4 --CO--NH CH2 C6 H5] | > 1 |  | 
14 | CC(C)[C@H](NC(=O)[C@H](C(C)C)N(C)C)C(=O)N(C)[C@H](C(=O)N1CCC[C@H]1C(=O)Nc1ccccc1C(=O)c1ccccc1)C(C)C [IV-15, 2-(Me2 Val-Val-MeVal-Pro-NH)--C6 H4 --CO--C6 H5] | 0.07 |  | 
15 | Dolastatin 15 |  | markedly inhibits the growth | poor solubility in aqueous systems
